Where a SMILES comes first, the peptide text is derived from it. Bridges are numbered along the chain shown (N, C = ends). [ ]: non-standard residue; d: D form. The star is where a group is joined. hPhe(3-Cl-4-CF3) = N[C@@H](CCc1ccc(C(F)(F)F)c(Cl)c1)C(=O)O; NPrPhe(4-CF3) = CCCN[C@@H](Cc1ccc(C(F)(F)F)cc1)C(=O)O; NEtPhe(4-Me) = CCN[C@@H](Cc1ccc(C)cc1)C(=O)O; NMeGly(cPent) = CN[C@H](C(=O)O)C1CCCC1; Hyp = O=C(O)[C@@H]1C[C@@H](O)CN1; NMeD = CN[C@@H](CC(=O)O)C(=O)O; NMeL = CN[C@@H](CC(C)C)C(=O)O; Morpholide = C1CN(*)CCO1; NMeA = CN[C@@H](C)C(=O)O; Ac5c = NC1(C(=O)O)CCCC1; Aze = O=C(O)[C@@H]1CCN1; Ac4c = NC1(C(=O)O)CCC1; X4 = C1CCC(*)OC1; Sar = CNCC(=O)O
How the values were obtained:
[1] = biological target: GDP-bound NRAS wild-type protein (Homo sapiens, UniProt P01111); assay: Binding to NRAS by surface plasmon resonance (SPR), KD and KD ratio to KRAS
Procedure, shortened: (§1)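 Running buffer contained 10 µM GDP and 10 mM MgCl2 to keep RAS in the GDP state, with 4% DMSO at pH 7.4. Compounds were flowed at 100 µL/min in 75 s steps of rising concentration over captured biotin-Avi RAS at 30°C. Sensorgrams were fitted 1:1 for KD.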

[2] = biological target: GDP-bound KRAS wild-type protein (Homo sapiens, UniProt P01116); assay: Binding to KRAS by surface plasmon resonance (SPR), dissociation constant KD
Procedure, shortened: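 Compound binding is evaluated by SPR single-cycle kinetics, with concentrations added intermittently from low to high for 75 s each. Target surfaces carry GDP-loaded biotinylated Avi-RAS at about 100–300 RU, regenerated after each cycle; temperature 30°C. A 1:1 binding model gives KD.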

[3] = biological target: HRAS wild-type protein (Homo sapiens, UniProt P01112); assay: Binding to HRAS by surface plasmon resonance (SPR), KD and KD ratio to KRAS
Procedure, shortened: as §1

[4] = system: human lung cancer strain NCI-H441; format: cell-based
Procedure, shortened: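 Step one: dispense the test compound in serial DMSO dilutions. Step three: add the reagent and measure […].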

[5] = ratio of KD for GDP-bound NRAS wild-type protein to KD for KRAS
[6] = ratio of KD for HRAS wild-type protein to KD for KRAS
[7] = ratio of the KD value with respect to GDP-bound NRAS wild-type protein to the KD value with respect to KRAS
[8] = Single Cycle Kinetics, 1:1 binding model
[9] = ratio of the KD value with respect to HRAS wild-type protein to the KD value with respect to KRAS
[10] = ratio of KD value for GDP-bound NRAS wild-type protein to KD value for KRAS (SPR)
[11] = ratio of KD value for HRAS wild-type protein to KD value for KRAS (SPR)

GDP-bound NRAS wild-type protein, sequence (P01111 whole entry): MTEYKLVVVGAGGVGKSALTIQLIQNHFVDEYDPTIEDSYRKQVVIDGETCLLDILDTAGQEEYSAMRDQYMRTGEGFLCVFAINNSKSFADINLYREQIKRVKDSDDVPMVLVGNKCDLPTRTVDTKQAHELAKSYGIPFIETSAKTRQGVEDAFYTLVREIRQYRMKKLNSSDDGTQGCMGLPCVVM
GDP-bound KRAS wild-type protein, sequence (P01116 1-188 isoform P01116-2): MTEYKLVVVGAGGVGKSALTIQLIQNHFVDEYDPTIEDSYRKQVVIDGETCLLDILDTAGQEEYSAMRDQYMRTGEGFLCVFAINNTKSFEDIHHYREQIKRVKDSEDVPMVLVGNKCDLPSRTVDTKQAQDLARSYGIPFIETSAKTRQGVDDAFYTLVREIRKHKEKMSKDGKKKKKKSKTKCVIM
HRAS wild-type protein, sequence (P01112 whole entry): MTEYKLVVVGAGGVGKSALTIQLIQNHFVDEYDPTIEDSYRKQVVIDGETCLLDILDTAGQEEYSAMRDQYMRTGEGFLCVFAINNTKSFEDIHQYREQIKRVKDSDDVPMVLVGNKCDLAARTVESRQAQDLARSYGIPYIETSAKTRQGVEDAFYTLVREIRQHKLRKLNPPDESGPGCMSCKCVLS

| Compound | Kd ([2]; Single Cycle Kinetics) [nM] | IC50 [4] [nM] | Kd [2, 8] [nM] | Kd ([2]; 1:1 binding model) [nM] | NRAS /KRAS [1, 5] | HRAS /KRAS [3, 6] | NRAS /KRAS [1, 7] | HRAS /KRAS [3, 9] | NRAS /KRAS [1, 10] | HRAS /KRAS [3, 11] |
| --- | --- | --- | --- | --- | --- | --- | --- | --- | --- | --- |
| CCO[C@@H]1C[C@H]2C(=O)NC3(CCC3)C(=O)N(C)[C@@H](C3CCCC3)C(=O)N(C)[C@H](C(=O)N(C)C)CC(=O)N(C)[C@@H](CC)C(=O)N[C@@H]([C@@H](C)CC)C(=O)N(C)CC(=O)N(C)[C@H]3CCCCCN(C3=O)[C@@H](Cc3nccs3)C(=O)N(C)CC(=O)N[C@@H](CCc3cc(F)c(C(F)(F)F)c(F)c3)C(=O)N2C1 [PP0913] | 1.1 | 206 |  |  | B (a compound having 3 or more and less than 10 is denoted as B) | B (a compound having 3 or more and less than 10 is denoted as B) |  |  |  |  |
| CCCN1C(=O)CN(C)C(=O)[C@@H]2CCN2C(=O)[C@H]([C@@H](C)CC)NC(=O)[C@H](CC(C)C)N(C)C(=O)C[C@@H](C(=O)N2CCOCC2)N(C)C(=O)[C@H](C2CCCC2)N(C)C(=O)C2(CCC2)NC(=O)[C@@H]2CCCN2C(=O)[C@H](CCc2ccc(C(F)(F)F)c(Cl)c2)NC(=O)CN(C)C(=O)[C@@H]1Cc1ccc(C(F)(F)F)cc1 [PP0402] ([NMeL]I[Aze][Sar][NPrPhe(4-CF3)][Sar][hPhe(3-Cl-4-CF3)]P[Ac4c][NMeGly(cPent)][NMeD]-Morpholide; lactam N-11) |  | 58.1 | 1.2 |  |  |  | B (a compound having 3 or more and less than 10 is denoted as B) | C (A compound having a KD ratio of 0.1 or more and less than 3 is denoted as C) |  |  |
| CC[C@H](C)[C@@H]1NC(=O)[C@H](CC(C)C)N(C)C(=O)C[C@@H](C(=O)N2CCOCC2)N(C)C(=O)[C@H](C2CCCC2)N(C)C(=O)C2(CCC2)NC(=O)[C@@H]2[C@@H](OCC3CCCC3)CCN2C(=O)[C@H](CCc2cc(F)c(C(F)(F)F)c(F)c2)NC(=O)CN(C)C(=O)[C@H](Cc2ccc(C(F)(F)F)cc2)N2CCCCC[C@@H](C2=O)N(C)C(=O)CN(C)C1=O [PP1011] | 3.7 | 314 |  |  | A (a compound having 10 or more and less than 20 is denoted as A) | B (a compound having 3 or more and less than 10 is denoted as B) |  |  |  |  |
| CC[C@H](C)[C@@H]1NC(=O)[C@H](CC(C)C)N(C)C(=O)C[C@@H](C(=O)N2CCOCC2)N(C)C(=O)[C@H](C2CCCC2)N(C)C(=O)C2(CCCC2)NC(=O)[C@@H]2C[C@@H](OC3CCCCO3)CN2C(=O)[C@H](CCc2ccc(C(F)(F)F)c(Cl)c2)NC(=O)CN(C)C(=O)[C@H](Cc2ccc(C)cc2)N(CC)C(=O)[C@@H]2CCN2C(=O)[C@H](C)N(C)C1=O (some centres unmarked) [PP0067] ([NMeL]I[NMeA][Aze][NEtPhe(4-Me)][Sar][hPhe(3-Cl-4-CF3)][Hyp](X4)[Ac5c][NMeGly(cPent)][NMeD]-Morpholide; lactam N-11) |  | 2.7 |  | 0.072 | C (A compound having a KD ratio of 0.1 or more and less than 3 is denoted as C) | C (A compound having a KD ratio of 0.1 or more and less than 3 is denoted as C) |  |  |  |  |
| CCO[C@@H]1C[C@H]2C(=O)NC3(CCC3)C(=O)N(C)[C@@H](C3CCCC3)C(=O)N(C)[C@H](C(=O)N3CCOCC3)CC(=O)N(C)[C@@H](CC3CCCCC3)C(=O)N[C@@H]([C@@H](C)CC)C(=O)N(C)CC(=O)N(C)[C@H]3CCCCCN(C3=O)[C@@H](Cc3ccc(C(F)(F)F)cc3)C(=O)N(C)CC(=O)N[C@@H](CCc3cc(F)c(C(F)(F)F)c(F)c3)C(=O)N2C1 [PP0686] |  | 65.7 | 1 |  |  |  | B (a compound having 3 or more and less than 10 is denoted as B) | B (a compound having 3 or more and less than 10 is denoted as B) |  |  |
| CCC[C@H]1C(=O)N[C@@H]([C@@H](C)CC)C(=O)N(C2CC2)CC(=O)N(C)[C@H]2C/C=C\CCN(C2=O)[C@@H](CC2CCCCC2)C(=O)N(C)CC(=O)N[C@@H](CCc2ccc(C(F)(F)F)c(OC)c2)C(=O)N2C[C@H](OCC)C[C@H]2C(=O)N(C)C2(CCC2)C(=O)N(C)[C@@H](C2CCCC2)C(=O)N(C)[C@H](C(=O)N(C)C)CC(=O)N1C [PP2340] |  | 44.9 | 1.1 |  |  |  | B (a compound having 3 or more and less than 10 is denoted as B) | B (a compound having 3 or more and less than 10 is denoted as B) |  |  |
| CCC[C@H]1C(=O)N[C@@H](C2CCCC2)C(=O)N(C)CC(=O)N(C)[C@H]2C/C=C\CCN(C2=O)[C@@H](Cc2ccc(C)cc2)C(=O)N(C)CC(=O)N[C@@H](CCc2ccc(C(F)(F)F)c(OC)c2)C(=O)N2CC3(CC3)C[C@H]2C(=O)NC2(CC(C)(C)C2)C(=O)N(C)[C@@H](C2CCCC2)C(=O)N(C)[C@H](C(=O)N(C)C)CC(=O)N1C [PP2994] |  | 15.8 |  | 0.21 | AA (a compound having 20 or more is denoted as AA) | A (a compound having 10 or more and less than 20 is denoted as A) |  |  |  |  |

Now from value to compound, other results behind:

| Kd ([2]; Single Cycle Kinetics) [nM] | IC50 [4] [nM] | Kd [2, 8] [nM] | Kd ([2]; 1:1 binding model) [nM] | Compound | NRAS /KRAS [1, 5] | HRAS /KRAS [3, 6] | NRAS /KRAS [1, 7] | HRAS /KRAS [3, 9] | NRAS /KRAS [1, 10] | HRAS /KRAS [3, 11] |
| --- | --- | --- | --- | --- | --- | --- | --- | --- | --- | --- |
| 17 | 1390 |  |  | CCO[C@@H]1C[C@H]2C(=O)NC3(CCC3)C(=O)N(C)[C@@H](C3CCCC3)C(=O)N(C)[C@H](C(=O)N(C)C)CC(=O)N(C)[C@@H](CC)C(=O)N[C@@H]([C@@H](C)CC)C(=O)N3CC[C@@H]3C(=O)N(C)[C@H]3C/C=C\CCN(C3=O)[C@@H](Cc3ccc(C(F)(F)F)cc3)C(=O)N(C)CC(=O)N[C@@H](CCc3cc(F)c(C(F)(F)F)c(F)c3)C(=O)N2C1 [PP1064] | A (a compound having 10 or more and less than 20 is denoted as A) | A (a compound having 10 or more and less than 20 is denoted as A) |  |  |  |  |
|  | 25.5 | 0.22 |  | CCO[C@@H]1C[C@H]2C(=O)NC3(CCC3)C(=O)N(C)[C@@H](C3CCCC3)C(=O)N(C)[C@H](C(=O)N(C)C)CC(=O)N(C)[C@@H](CCOC)C(=O)N[C@@H]([C@@H](C)CC)C(=O)N(C)CC(=O)N(C)[C@H]3CCCCCN(C3=O)[C@@H](Cc3ccc(C(F)(F)F)cc3)C(=O)N(C)CC(=O)N[C@@H](CCc3cc(F)c(C(F)(F)F)c(F)c3)C(=O)N2C1 [PP0675] |  |  | B (a compound having 3 or more and less than 10 is denoted as B) | B (a compound having 3 or more and less than 10 is denoted as B) |  |  |
|  | 61.4 |  | 0.6 | CCO[C@@H]1C[C@H]2C(=O)NC3(CC(C)(C)C3)C(=O)N(C)[C@@H](C3CCCC3)C(=O)N(C)[C@H](C(=O)N(C)C)CC(=O)N(C)[C@@H]([C@@H](C)OC)C(=O)N[C@@H]([C@@H](C)CC)C(=O)N3CCC[C@H]3C(=O)N(C)[C@H]3C/C=C\CCN(C3=O)[C@@H](Cc3ccc(C)cc3)C(=O)N(C)CC(=O)N[C@@H](CCc3ccc(C(F)(F)F)c(OC)c3)C(=O)N2C1 [PP3213] | A (a compound having 10 or more and less than 20 is denoted as A) | A (a compound having 10 or more and less than 20 is denoted as A) |  |  |  |  |
|  | 18.4 |  | 0.39 | CCO[C@@H]1C[C@H]2C(=O)NC3(CC(C)(C)C3)C(=O)N(C)[C@@H](C3CCCC3)C(=O)N(C)[C@H](C(=O)N(C)C)CC(=O)N(C)[C@@H]([C@@H](C)OC)C(=O)N[C@@H]([C@@H](C)CC)C(=O)N3CCC[C@H]3C(=O)N(C)[C@H]3C/C=C\CCN(C3=O)[C@@H](Cc3ccc(C(F)(F)F)cc3)C(=O)N(C)CC(=O)N[C@@H](CCc3cc(F)c(C(F)(F)F)c(F)c3)C(=O)N2C1 [PP3205] | A (a compound having 10 or more and less than 20 is denoted as A) | A (a compound having 10 or more and less than 20 is denoted as A) |  |  |  |  |
|  | 6.7 | 0.17 |  | CCCOC[C@H]1C(=O)N[C@@H]([C@@H](C)CC)C(=O)N(C)CC(=O)N(C)[C@H]2C/C=C\CCN(C2=O)[C@@H](Cc2ccc(C)cc2)C(=O)N(C)CC(=O)N[C@@H](CCc2cc(F)c(C(F)(F)F)c(F)c2)C(=O)N2C[C@H](OCC)C[C@H]2C(=O)NC2(CC(C)(C)C2)C(=O)N(C)[C@@H](C2CCCC2)C(=O)N(C)[C@H](C(=O)N(C)CC)CC(=O)N1C [PP1577] |  |  |  |  | B (a compound having 3 or more and less than 10 is denoted as B) | B (a compound having 3 or more and less than 10 is denoted as B) |
|  | 8 | 0.14 |  | CCCN1C(=O)C[C@@H](C(=O)N(C)C)N(C)C(=O)[C@H](C2CCCC2)N(C)C(=O)C2(CCC2)NC(=O)[C@@H]2C[C@@H](OCC)CN2C(=O)[C@H](CCc2cc(F)c(C(F)(F)F)c(F)c2)NC(=O)CN(C)C(=O)[C@H](Cc2ccc(C(F)(F)F)cc2)N2CC/C=C\C[C@@H](C2=O)N(C)C(=O)CN(C)C(=O)[C@H]([C@@H](C)CC)NC(=O)[C@@H]1CC(C)C [PP1825] |  |  |  |  | A (a compound having 10 or more and less than 20 is denoted as A) | A (a compound having 10 or more and less than 20 is denoted as A) |
|  | 36.1 | 0.76 |  | CCO[C@@H]1C[C@H]2C(=O)NC3(CCC3)C(=O)N(C)[C@@H](C3CCCC3)C(=O)N(C)[C@H](C(=O)N(C)C)CC(=O)N(C)[C@@H](CC(C)C)C(=O)N[C@@H]([C@@H](C)CC)C(=O)N(C)CC(=O)N(C)[C@H]3CCCCCN(C3=O)[C@@H](Cc3ccc(C(F)(F)F)cc3)C(=O)N(C)CC(=O)N[C@@H](CCc3cc(F)c(C(F)(F)F)c(F)c3)C(=O)N2C1 [PP0469] |  |  | B (a compound having 3 or more and less than 10 is denoted as B) | B (a compound having 3 or more and less than 10 is denoted as B) |  |  |
